Test results taken from US11986478B2 (priority 2021, dated 2024).
Like-named read-outs stand apart in the source and are kept apart here.

How the values were obtained:
[1] = system: human DUBs; format: biochemical
[2] = system: hCoV-229E; format: cell-based
[3] = biological target: T1, SARS-CoV-2 PLpro (Severe acute respiratory syndrome coronavirus 2, UniProt P0DTD1); experiment: biochemical; format: biochemical
[4] = system: SARS-CoV-2-infected Caco-2 cells; format: cell-based, human
[5] = system: cellular proteases (serine, cysteine and acid proteases) in Huh-7, Caco-2 and A549 lysates; format: biochemical, human
[6] = system: SARS-CoV-2; format: cell-based
[7] = biological target: T1, SARS-CoV-2 PLpro; format: biochemical
[8] = system: SARS-CoV-2; parameters: species or system golden Syrian hamster; conditions: hamster, in vivo
[9] = biological target: T1, SARS-CoV-2 PLpro; format: biochemical; remark: listed apart in the source
[10] = system: SARS-CoV-2; experiment: microbe, parasite or virus in culture; format: cell-based; conditions: Severe acute respiratory syndrome coronavirus 2, read-out: EC50 anti-SARS-CoV-2 activity
[11] = system: SARS-CoV-2; format: cell-based; remark: listed apart in the source
[12] = system: Caco-2 and Huh-7 cells; format: cell-based, human
[13] = system: MERS-CoV-infected Huh-7 cells; format: cell-based, human
[14] = biological target: T2, MERS-CoV PLpro (Middle East respiratory syndrome-related coronavirus, UniProt K9N7C7); format: biochemical
[15] = biological target: T2, MERS-CoV PLpro; format: cell-based
[16] = system: hCoV-OC43; format: cell-based
[17] = biological target: T1, SARS-CoV-2 PLpro; format: cell-based
[18] = system: MERS-CoV; format: cell-based
[19] = system: Huh7, VeroE6/TMPRSS2, Calu-3, Caco-2, BSC1 cells and human embryonic lung fibroblasts (HELF)
[20] = system: MERS-CoV; format: cell-based; remark: listed apart in the source
[21] = system: MERS-CoV; format: cell-based; remark: listed apart in the source
[22] = biological target: T2, MERS-CoV PLpro; format: biochemical; remark: listed apart in the source
[23] = read-out: IC50 against SARS-CoV-2-PLpro

T2 sequence (K9N7C7 1552-1823 limits assumed): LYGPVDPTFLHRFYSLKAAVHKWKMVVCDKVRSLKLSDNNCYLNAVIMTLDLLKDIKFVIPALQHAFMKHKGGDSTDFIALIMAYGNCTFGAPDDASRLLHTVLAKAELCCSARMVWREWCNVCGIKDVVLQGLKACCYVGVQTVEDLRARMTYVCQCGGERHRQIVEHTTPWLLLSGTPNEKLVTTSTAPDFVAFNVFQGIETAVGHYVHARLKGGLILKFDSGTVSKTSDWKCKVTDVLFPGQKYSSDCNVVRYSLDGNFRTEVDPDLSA

Q: With `O=C(Nc1ccccc1Cl)c1sc(=S)n2c1[nH]c(=O)c1ccccc12` [Compound F0213] as the compound, how does the “modification of cellular DUBs by HA-Ub-VS” value [1] read?
A: no change was noted in the immunoblot pattern

Q: And the “decrease of viral yields” value [2]?
A: about 2 log 10

Q: And the IC50 [3, 23]?
A: 7.4 µM

Q: And the “expression of IFN-responsive genes ISG15 and PKR” value [4]?
A: significantly enhanced

Q: And the cellular protease activity [5]?
A: not affected

Q: And the “inhibition of virus replication by NP antigen immunofluorescence” value (“inhibition of virus replication” below) [6]?
A: significant inhibition of virus replication

Q: And the “cleavage of ISG15-AMC and Ubiquitin-AMC” value [7]?
A: inhibited cleavage

Q: And the “SARS-CoV-2 N expression in lung by immunofluorescence” value [8]?
A: reduced N expression

Q: What about the “SARS-CoV-2 genome copies in the lungs” value [8] of the same compound?
A: suppression

Q: And the “lung damage by H & E staining” value [8]?
A: improved morphology and milder infiltrations

Q: And the “decrease of virus plaque-forming units in lung tissues” value ([8]; 5 mg/kg/day)?
A: 1-2 log 10

Q: What about the “efficacy by route on lung genome copies” value ([8]; 5 mg/kg/day) of the same compound?
A: superior efficacy via PO route than that of IP injection

Q: What about the “modification of PLpro by HA-Ub-VS” value [9] of the same compound?
A: eliminated in the presence of GRL0617 but not F0213

Q: And the EC50 [10]?
A: 4.5 µM

Q: And the “reduction of SARS-CoV-2 viral yields” value [11]?
A: more than 1 log 10

Q: What about the cellular antiviral signaling [12] of the same compound?
A: potentiated the cellular antiviral signaling

Q: What about the “transcription levels of ISG15 and PKR” value [13] of the same compound?
A: reduced

Q: What about the “cleavage of ISG15-AMC and Ubiquitin-AMC” value [14] of the same compound?
A: inhibited cleavage

Q: What about the “rescue of IFN-β, IRF3 and NF-κB reporter gene expression” value [15] of the same compound?
A: rescued the genes expression in a dose-dependent manner

Q: And the “decrease of viral yields” value [16]?
A: around 1.5 log 10

Q: And the “rescue of IFN-β, IRF3 and NF-κB reporter gene expression” value [17]?
A: rescued the genes expression in a dose-dependent manner

Q: And the “decrease of viral yields” value [18]?
A: about 3 log 10

Q: And the “cytotoxicity in the matching cell lines” value [19]?
A: negligible cytotoxicity

Q: What about the “antiviral EC50 against MERS-CoV compared with SARS-CoV-2” value [20] of the same compound?
A: lower antiviral EC50 against MERS-CoV than SARS-CoV-2

Q: What about the “inhibition of virus replication” value [21] of the same compound?
A: significant inhibition of virus replication

Q: How did the IC50 [3] turn out when `COc1cc2c(=O)[nH]c3c(C(=O)Nc4cc(Cl)ccc4C)sc(=S)n3c2cc1OC` [Compound F0326] was run?
A: 8.2 µM

Q: What about the EC50 [10] of the same compound?
A: 7.6 µM

Q: With `Cc1cccc(NC(=O)c2sc(=S)n3c2[nH]c(=O)c2cc4c(cc23)OCO4)c1` [Compound F0393] as the compound, how does the IC50 [3, 23] read?
A: 15.8 µM

Q: `CCN1C(=O)C=CC1=O` [NEM, N-ethyl-maleimide, reference compound] was tested. Which “modification of cellular DUBs by HA-Ub-VS” value [1] did it give?
A: diminished the modification of HA-Ub-VS on DUBs

Q: GRL0617 [reference compound] was tested. Which “inhibition of virus replication” value [6] did it give?
A: marginal virus suppression

Q: What about the “effect on MERS-CoV-PLpro activity” value [22] of the same compound?
A: without impairing the MERS-CoV-PLpro activity

Q: And the “modification of PLpro by HA-Ub-VS” value [9]?
A: almost completely eliminated

Q: What about the “inhibition of virus replication” value [21] of the same compound?
A: marginal virus suppression
